Columns and labels:
[1] = system: AP-1; experiment: DNA-binding activity of AP-1 (electrophoretic mobility shift assay); type: cell-based, Sprague-Dawley white rats; conditions: 10 ng TNF-α; scoparone 0, 10, 20, 50 and 100 μM; 24 hours; EMSA
Protocol: (§1) Proteins such as cell cycle regulatory proteins or chemokine are regulated by the respective transcription factors. Accordingly, the DNA-binding activities of AP-1 that is a transcription factor regulating the expression of cell cycle regulatory proteins, and NF-κB that is a transcription factor regulating the expression of chemokine were analyzed using an electrophoretic mobility shift assay (EMSA).
(§2) Vascular smooth muscle cells were cultured in 0.5% FBS-containing medium for 24 hours. The cultured cells were divided into a control group treated with neither scoparone nor tumor necrosis factor (TNF-α, and five test groups which were treated with media containing 10 ng of tumor necrosis factor (TNF-α) for 24 hours at scoparone concentrations of 0 μM, 10 μM, 20 μM, 50 μM and 100 μM, respectively. Nuclear extracts were isolated from the vascular smooth muscle cells and labeled with radioisotope-labeled probes for AP-1 and NF-κB. Then, the labeled extracts were subjected to a protein-DNA reaction at room temperature for 20 minutes. After completion of the reaction, each sample was loaded on a 4% native polyarylamide gel and electrophoresed at 150 volt for 2 hours, followed by analysis.

[2] = system: ROS; experiment: ROS production in vascular smooth muscle cells (DCF-DA fluorescence microscopy); type: cell-based, Sprague-Dawley white rats; conditions: TNF-α-containing media, scoparone 100 μM and 200 μM, 1 hour
Protocol: When vascular smooth muscle cells were grown to a confluence of about 90% in a 6-well cell culture dish, the cells were cultured in 0.5% FBS DMEM medium for 24 hours. The cultured cells were divided into a control group treated with neither tumor necrosis factor (TNF-α nor scoparone, and three test groups which were treated with scoparone in tumor necrosis factor (TNF-α)-containing media at scoparone concentrations of 0 μM, 100 μM and 200 μM, respectively. The cells of each group were incubated for 1 hour, and then 40 μmol/L of 2′,7′-dichlorofluorecin diacetate (DCF-DA; Invitrogen), a fluorescent probe sensitive to ROS, was added thereto, and the cells were incubated for 30 minutes. The production of ROS in the cells was analyzed using an AxioCam MRc5 Carl Zeiss fluorescence microscope (Thornwood, N.Y.) which was excited at a 488-nm wavelength and emitted at 515-nm wavelength.

[3] = system: neointima formation in carotid artery; experiment: Formation of neointima after balloon dilatation (carotid artery, H&E staining); type: in vivo, Sprague-Dawley white rats; conditions: high-fat diet containing 10 mg/kg or 100 mg/kg of scoparone; 2 weeks after balloon dilatation; vs negative control group
Protocol: In order to examine whether scoparone inhibits the formation of neointima after balloon dilatation, an experiment was performed using Sprague-Dawley white rats fed with scoparone-containing feed.
As test subjects, male Sprague-Dawley white rats weighing about 300 g were used. The rats were grouped into a normal control group, a negative control group fed only with a high-fat diet (20% fat and 0.05% cholesterol) and a test group fed with a high-fat diet containing 10 mg/kg or 100 mg/kg of scoparone, each group consisting of 4 animals, and were kept at 22° C. under a 12-hr light/12-hr dark cycle. The negative control group and the test group were fed with the above-described diets from 3 days before performing balloon dilatation and were fed with the diets during 2 weeks after balloon dilatation. After 2 weeks, the carotid artery was isolated from the rats and stained with H&E (hematoxylin & eosin) in order to observe the formation of neointima. FIG. 2 is a micrograph (×100) showing the cross-section of the carotid artery of the rats 2 weeks after balloon dilatation.

[4] = system: p21; experiment: Expression of p21 in vascular smooth muscle cells (Western blot); type: cell-based, Sprague-Dawley white rats
Protocol: (§3) Cultured vascular muscle cells were plated in a 60-mm tissue culture dish at a confluence of about 80-90%, and then cultured in 0.5% FBS containing medium for 24 hours to allow the cells to enter the stationary phase. The cultured cells were divided into a control group not treated with scoparone, and five test groups which were treated with 50 μg of scoparone for 2 hr, 4 hr, 6 hr, 12 hr and 24 hr, respectively. From each of the groups, the total protein was isolated using RIPA buffer. Each of the isolated total proteins was boiled in buffer for 5 minutes, and then cooled on ice. Then, each total protein was separated according to size by electrophoresis on sodium dodecyl sulfate polyacrylamide gel. Then, each total protein was transferred to a PVDF membrane which was then allowed to react with antibodies for p53, p27, p21 and Cyclin D to examine the expression of the proteins.

[5] = system: NF-κB; experiment: DNA-binding activity of NF-κB (electrophoretic mobility shift assay); type: cell-based, Sprague-Dawley white rats; conditions: 10 ng TNF-α; scoparone 0, 10, 20, 50 and 100 μM; 24 hours; EMSA
Protocol: as §1, §2

[6] = system: AMPK; experiment: Phosphorylation of AMPK in vascular smooth muscle cells (Western blot); type: cell-based, Sprague-Dawley white rats; conditions: 50 μg of scoparone for 1, 2, 4, 6 and 12 hr
Protocol: (§4) Cultured vascular smooth muscle cells were plated in a 60-mm tissue culture dish at a confluence of about 80-90%, and then cultured in 0.5% FBS-containing medium for 24 hours to allow the cells to enter the stationary phase. The cultured cells were divided into a control group not treated with scoparone, and five test groups which were treated with 50 μg of scoparone for 1 hr, 2 hr, 4 hr, 6 hr and 12 hr, respectively. From each of the groups, the total protein was isolated using RIPA buffer. Each of the isolated total proteins was boiled in buffer for 5 minutes, and then cooled on ice. Then, each total protein was separated according to size by electrophoresis on sodium dodecyl sulfate polyacrylamide. Then, each total protein was transferred to a PVDF membrane which was then allowed to react with monoclonal antibodies for pACC, pAMPK and AMPK to examine the expression and phosphorylation of the proteins.

[7] = system: JNK; experiment: Phosphorylation of JNK in vascular smooth muscle cells (Western blot); type: cell-based, Sprague-Dawley white rats; conditions: 50 μg of scoparone for 15, 30, 45, 60 and 90 min
Protocol: (§5) In order to examine the signaling pathway of scoparone, the phosphorylation of JNK and Erk was examined.
(§6) Cultured vascular smooth muscle cells were plated in a 60-mm tissue culture dish at a confluence of 80-90%, and then cultured in 0.5% FBS-containing medium for 24 hours to allow the cells to enter the stationary phase. The cultured cells were divided into a control group not treated with scoparone, and five test groups which were treated with 50 μg of scoparone for 15 min, 30 min, 45 min, 60 min and 90 min, respectively. From each of the groups, the total protein was isolated using RIPA buffer. Each of the isolated total proteins was boiled in buffer for 5 minutes, and then cooled on ice. Then, each total protein was separated according to size by electrophoresis on sodium dodecyl sulfate polyacrylamide gel. Then, each total protein was transferred to a PVDF membrane which was then allowed to react with antibodies for pJNK, JNK, pErk and Erk to examine the expression and phosphorylation of the proteins.

[8] = system: cyclin D; experiment: Expression of cyclin D in vascular smooth muscle cells (Western blot); type: cell-based, Sprague-Dawley white rats; conditions: 50 μg of scoparone for 2, 4, 6, 12 and 24 hr
Protocol: as §3

[9] = system: p27; experiment: Expression of p27 in vascular smooth muscle cells (Western blot); type: cell-based, Sprague-Dawley white rats
Protocol: as §3

[10] = system: vascular smooth muscle cells; experiment: Inhibition of proliferation of vascular smooth muscle cells (WST cell counting); type: cell-based, Sprague-Dawley white rats; conditions: scoparone 0, 5, 10, 20 or 50 μM, 48 hours, absorbance at 450 nm
Protocol: Vascular smooth muscle cells were isolated from the thoracic aorta of Sprague-Dawley white rats and cultured in a medium containing 20% fetal bovine serum.
The specificity of vascular smooth muscle cells was confirmed by staining the cells with α-actin monoclonal antibody (Sigma, St Louis, Mo., USA). In this experiment, vascular smooth muscle cells subcultured 5-6 times were used. The cultured vascular smooth muscle cells were plated in a 60-mm tissue culture dish at a confluence of about 80-90%, and then cultured in 0.5% FBS DMEM medium for 24 hours to allow the cells to enter the stationary phase.
The primarily cultured vascular smooth muscle cells were cultured in a 96-well culture dish, and when the cells reached a confluence of 40%, the medium was replaced with 0.5% FBS-containing medium, and the cells were cultured for 24 hours to allow the cells to enter the stationary phase.

[11] = system: p53; experiment: Expression of p53 in vascular smooth muscle cells (Western blot); type: cell-based, Sprague-Dawley white rats
Protocol: as §3

[12] = system: Erk; experiment: Phosphorylation of Erk in vascular smooth muscle cells (Western blot); type: cell-based, Sprague-Dawley white rats; conditions: 50 μg of scoparone for 15, 30, 45, 60 and 90 min
Protocol: as §5, §6

[13] = system: ACC; experiment: Phosphorylation of ACC in vascular smooth muscle cells (Western blot); type: cell-based, Sprague-Dawley white rats; conditions: 50 μg of scoparone for 1, 2, 4, 6 and 12 hr
Protocol: as §4

[14] = high-cholesterol rabbit model; cited from earlier work
[15] = system: human peripheral monocytes; conditions: cited from earlier work
[16] = system: VCAM-1; experiment: Expression of VCAM-1 in vascular smooth muscle cells (Western blot); type: cell-based, Sprague-Dawley white rats; conditions: TNF-α-containing media; scoparone 0, 10, 20, 50 and 100 μM; 24 hours
Protocol: Cultured vascular smooth muscle cells were plated in a 60-mm tissue culture dish at a confluence of about 80-90%, and then cultured in 0.5% FBS-containing medium for 24 hours to allow the cells to enter the stationary phase. The cultured cells were divided into a control group treated with neither scoparone nor tumor necrosis factor (TNF-α, and five test groups which were treated with scoparone in tumor necrosis factor (TNF-α)-containing media for 24 hours at scoparone concentrations of 0 μM, 10 μM, 20 μM, 50 μM and 100 μM, respectively. In addition, the cells were divided into five groups which were treated with 50 μg of scoparone for 15 min, 30 min, 45 min, 60 min and 90 min, respectively. From each of the groups, the total protein was isolated using RIPA buffer. Each of the isolated total protein was boiled in buffer for 5 minutes, and then cooled on ice. Then, each total protein was separated according to size by electrophoresis on sodium dodecyl sulfate polyacrylamide gel. Then, each total protein was transferred to a PVDF membrane which was then allowed to react with antibodies for VCAM and PAI-1 to examine the expression of the proteins. The membrane was further allowed to react with anti-actin antibody to examine whether the antibody uses a given amount of the proteins.

[17] = system: vascular smooth muscle cells; experiment: Proliferation of vascular smooth muscle cells on treatment with the AMPK inhibitor CompC; type: cell-based, Sprague-Dawley white rats; conditions: cells treated with CompC, described as an AMPK inhibitor
[18] = 50 μg of scoparone for 2, 4, 6, 12 and 24 hr

COc1cc2ccc(=O)oc2cc1OC [scoparone, 6,7-dimethoxycoumarin]
DNA binding activity of AP-1 [1]: concentration-dependently decreased | expression of ROS [2]: decreased | formation of neointima [3]: decreased compared to that in the negative control group | time of highest expression level of p21 after treatment ([4]; 50 μg of scoparone): 24 h | expression of p21 [4, 18]: time-dependently increased | DNA binding activity of NF-κB [5]: concentration-dependently decreased | phosphorylation of AMPK [6]: time-dependently increased | phosphorylation of JNK [7]: gradually increased with the passage of time | expression level of cyclin D [8]: decreased | time of highest expression level of p27 after treatment ([9]; 50 μg of scoparone): 24 h | expression of p27 [9, 18]: time-dependently increased | proliferation of the vascular smooth muscle cells ([10]; with 10 ng/ml TNF-α): decreased in a dose-dependent manner | proliferation of the vascular smooth muscle cells ([10]; with 20 ng/ml PDGF): decreased in a dose-dependent manner | time of highest expression level of p53 after treatment ([11]; 50 μg of scoparone): 2 to 4 h | expression of p53 [11, 18]: time-dependently increased | time of highest phosphorylation of Erk after treatment [12]: 45 min | phosphorylation of ACC [13]: time-dependently increased | cholesterol levels [14]: lowered | triglyceride levels [14]: lowered | growth of human peripheral monocytes [15]: inhibits | expression of VCAM-1 [16]: dose-dependently decreased

c1cc(-c2cnn3cc(-c4ccc(OCCN5CCCCC5)cc4)cnc23)ccn1 [CompC]
proliferation of the vascular smooth muscle cells [17]: restored again

Source: patent publication US20110015410A1, “NOVEL USE OF SCOPARONE” (Kyungpook National University Industry Academic Cooperation …, priority 2007, published 2011)
